Assay: Solubility of aclidinium bromide in solvents
Format: physicochemical
Text: Aclidinium bromide is a white powder with a molecular formula of C26H30NO4S2Br and a molecular mass of 564.56. […] This compound is known to be a long-acting anticholinergic useful in the treatment of respiratory diseases.

O=C(O[C@H]1C[N+]2(CCCOc3ccccc3)CCC1CC2)C(O)(c1cccs1)c1cccs1.[Br-] [Aclidinium bromide, 3(R)-(2-hydroxy-2,2-dithien-2-ylacetoxy)-1-(3-phenoxypropyl)-1-azoniabicyclo[2.2.2]octane bromide]
solubility in ethanol (ethanol): very slightly soluble
solubility in methanol (methanol): sparingly soluble
solubility in water (water): very slightly soluble

— patent US20170128426A1, “NOVEL DOSAGE AND FORMULATION” (Almirall, S.A., priority 2012, published 2017)
